Experimental data as given in patent US20210371440A1, “TLR7 AND / OR TLR8 AGONISTS” (GLAXOSMITHKLINE BIOLOGICALS SA, priority 2018, published 2021).

Columns and labels:
human TLR8 = target: T1, human TLR8 (Homo sapiens, UniProt Q9NR97); assay: HEK293 hTLR8 NFKB-SEAP reporter assay; type: cell-based; conditions: for EC50: HEK293 stably transfected with hTLR8, 24 h stimulation, aqueous formulations of choline salts (2% glycerol), SEAP readout, read-out: TLR8 ED50
T1 construct: host or cells: HEK293
T1 sequence (Q9NR97 27-1041): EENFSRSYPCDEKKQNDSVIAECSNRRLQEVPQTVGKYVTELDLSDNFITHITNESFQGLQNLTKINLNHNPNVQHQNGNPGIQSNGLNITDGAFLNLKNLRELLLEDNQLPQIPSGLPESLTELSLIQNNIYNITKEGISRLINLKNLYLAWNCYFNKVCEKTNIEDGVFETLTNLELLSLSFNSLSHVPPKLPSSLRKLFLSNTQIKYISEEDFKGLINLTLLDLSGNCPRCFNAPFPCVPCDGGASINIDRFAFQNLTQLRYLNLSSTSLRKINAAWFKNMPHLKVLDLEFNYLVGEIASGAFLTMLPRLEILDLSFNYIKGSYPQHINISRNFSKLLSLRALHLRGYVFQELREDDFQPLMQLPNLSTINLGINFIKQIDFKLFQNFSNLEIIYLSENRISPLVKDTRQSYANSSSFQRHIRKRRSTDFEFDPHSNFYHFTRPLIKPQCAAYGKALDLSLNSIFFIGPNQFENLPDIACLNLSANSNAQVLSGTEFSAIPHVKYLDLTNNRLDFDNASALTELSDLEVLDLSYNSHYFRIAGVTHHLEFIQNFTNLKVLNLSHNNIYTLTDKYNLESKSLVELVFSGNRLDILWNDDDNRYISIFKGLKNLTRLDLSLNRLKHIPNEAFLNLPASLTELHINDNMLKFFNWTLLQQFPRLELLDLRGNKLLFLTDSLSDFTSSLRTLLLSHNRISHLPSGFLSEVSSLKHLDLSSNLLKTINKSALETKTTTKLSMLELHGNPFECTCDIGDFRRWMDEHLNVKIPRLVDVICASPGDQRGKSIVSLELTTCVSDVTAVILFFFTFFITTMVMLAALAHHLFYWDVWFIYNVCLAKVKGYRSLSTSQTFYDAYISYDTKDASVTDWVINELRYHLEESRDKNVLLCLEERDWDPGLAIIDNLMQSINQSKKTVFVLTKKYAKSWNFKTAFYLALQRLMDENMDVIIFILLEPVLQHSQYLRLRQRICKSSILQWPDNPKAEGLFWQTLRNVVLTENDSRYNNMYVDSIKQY
Method: (§1) Determination of TLR agonist activity was performed using the HEK293 binding assay.
(§2) This assay measures TLR7 and TLR8 selectivity and potency of the compounds tested. HEK293 cells expressing human TLR7 or TLR8 and NFKB responsive Secreted Embryonic Alkaline Phosphatase (SEAP) reporter gene were obtained from InvitroGen (San Diego, Calif.). These cells were maintained in culture media of Dulbecco's Modified Eagle Medium (DMEM) (Invitrogen, Grand Island, N.Y.), 10% Fetal Bovine Serum (FBS) (Sigma, St. Louis, Mo.) and selection antibiotics (Invitrogen, and Invitrogen). HEK293 stably transfected with human TLR7 (hTLR7) or human TLR8 (hTLR8) were stimulated for 24 h with aqueous formulations of compounds and culture supernatants were analysed for NFKB activation using the colorimetric SEAP detection kit QuantBlue (InvitroGen).
(§3) Choline salts of the compounds were prepared in aqueous solution (2% glycerol) and sonicated to reduce particle size to 120-370 nm.

human TLR7 = target: T2, human TLR7 (Homo sapiens, UniProt Q9NYK1); assay: HEK293 hTLR7 NFKB-SEAP reporter assay; type: cell-based; conditions: for EC50: HEK293 stably transfected with hTLR7, 24 h stimulation, aqueous formulations of choline salts (2% glycerol), SEAP readout, read-out: TLR7 ED50; for TLR7/8 ratio: ratio of TLR7 ED50 to TLR8 ED50, HEK293 reporter cells
T2 construct: host or cells: HEK293
T2 sequence (Q9NYK1 27-1049): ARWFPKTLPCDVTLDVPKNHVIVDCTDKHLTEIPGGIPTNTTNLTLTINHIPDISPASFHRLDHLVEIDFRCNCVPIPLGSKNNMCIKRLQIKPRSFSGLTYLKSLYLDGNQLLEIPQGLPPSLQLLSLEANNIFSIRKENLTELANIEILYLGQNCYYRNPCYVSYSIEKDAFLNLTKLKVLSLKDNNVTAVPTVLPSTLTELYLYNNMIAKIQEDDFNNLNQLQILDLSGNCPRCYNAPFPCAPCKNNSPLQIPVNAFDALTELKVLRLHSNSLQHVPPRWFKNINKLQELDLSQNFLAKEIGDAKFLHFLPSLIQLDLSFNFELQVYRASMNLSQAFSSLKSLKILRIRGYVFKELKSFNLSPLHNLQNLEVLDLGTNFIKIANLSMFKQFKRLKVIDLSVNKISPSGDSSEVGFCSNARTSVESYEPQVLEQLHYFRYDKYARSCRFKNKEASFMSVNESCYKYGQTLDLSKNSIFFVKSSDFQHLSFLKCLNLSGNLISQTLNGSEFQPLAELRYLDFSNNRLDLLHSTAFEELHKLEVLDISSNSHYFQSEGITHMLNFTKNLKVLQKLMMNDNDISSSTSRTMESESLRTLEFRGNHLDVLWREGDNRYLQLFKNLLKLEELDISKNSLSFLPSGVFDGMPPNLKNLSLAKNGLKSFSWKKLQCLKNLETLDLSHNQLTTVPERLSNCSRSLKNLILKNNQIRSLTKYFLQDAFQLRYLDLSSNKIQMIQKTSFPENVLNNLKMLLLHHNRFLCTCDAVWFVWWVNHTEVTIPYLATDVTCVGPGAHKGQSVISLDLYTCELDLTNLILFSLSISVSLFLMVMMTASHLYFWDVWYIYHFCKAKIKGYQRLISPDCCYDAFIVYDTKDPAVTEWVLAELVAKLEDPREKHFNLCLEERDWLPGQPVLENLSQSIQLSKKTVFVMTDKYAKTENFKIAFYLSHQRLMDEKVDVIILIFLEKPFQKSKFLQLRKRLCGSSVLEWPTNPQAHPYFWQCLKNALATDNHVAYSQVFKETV
Method: as §1, §2, §3

| EC50 (human TLR8) [nM] | EC50 (human TLR7) [nM] | TLR7/8 ratio (human TLR7) | hTLR8 activity compared with parent core oxoadenine compound (human TLR8; HEK293 hTLR8, result in words) | hTLR7 activity compared with parent core oxoadenine compound (human TLR7; HEK293 hTLR7, result in words) | TLR7/TLR8 selectivity in words (human TLR7; HEK293 hTLR7 vs hTLR8, relative to similar prior art compounds) | SMILES |
| --- | --- | --- | --- | --- | --- | --- |
| 530 | 340 | 0.6 |  |  |  | CCC[C@H](C)Oc1nc(N)c2[nH]c(=O)n(CC3CCN(CCO)CC3)c2n1 |
| 470 | 320 | 0.7 | slightly more potent | slightly more potent | TLR7 bias | CCCCCCCC/C=C\CCCCCCCC(=O)OC[C@H](COP(=O)(O)OCCN1CCC(Cn2c(=O)[nH]c3c(N)nc(O[C@@H](C)CCC)nc32)CC1)OC(=O)CCCCCCC/C=C\CCCCCCCC [Compound 1] |
| 190 | 580 | 3.1 |  |  |  | CCCCc1nc2c(N)nc3ccccc3c2n1CCO [reference compound] |
| 26000 | 34600 | 1.3 |  |  |  | CC/C=C\CC(=O)OC[C@H](COP(=O)(O)OCCn1c(CCCC)nc2c(N)nc3ccccc3c21)OC(=O)C/C=C\CC [reference compound] |
